In PubChem BioAssay (NCI):
Where “and” joins values, the source holds several entries; their conditions need not be identical. Identical values can stand only once.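 The compound was tested at five concentrations on cells cultured in 96-well plates, with a 48-hour exposure period. The concentration for 50% growth inhibition is given as GI50. TGI is the concentration that stops growth completely.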

Tested on: MDA-MB-468 breast
Test: NCI tumour cell line growth inhibition, 48 h

| SMILES | GI50 | TGI |
| --- | --- | --- |
| CCN(Cc1ccccn1)c1ccc(CO)c(Cl)c1 | 0.127 µM | 0.331 µM |
| CCCC(=O)OCC1OC(n2cnc3c(=S)nc(N)[nH]c32)C(OC(=O)CCC)C1OC(=O)CCC (centres undefined) | 0.332 µM | 2.67 µM |
| O=c1nc(Nc2ccc([N+](=O)[O-])cc2O)sc2ccccc12 | 0.34 µM | 1.21 µM |
| COc1cccc(/C=C2\COc3ccc(O)c(O)c3C2=O)c1 | 1.15 µM | 3.15 µM |
| C=CC(C)c1cccc(C=O)c1O (centres undefined) | 51.6 µM | > 100 µM |
| O=C(Nc1ccc(F)cc1F)c1cc(F)ccc1O | 2.6 µM | 7.88 µM |
| COc1ccc(C(=O)c2cc(OC)c(OC)c(OC)c2)cc1OC(=O)C(Cl)(Cl)Cl | 0.542 µM | – |
| CN1C[C@@H](c2ccc(Cl)cc2)[C@]2(NC(=S)N(c3ccc(F)c(Cl)c3)C2=O)[C@@]12C(=O)NC1C=CC(Cl)=C[C@H]12 (some centres undefined) | 3.38 µM | 12.9 µM |
| COc1ccc(OC)c(/C=C/C(=O)N/N=C/c2ccccc2)c1 | 1.96 µM | 6.47 µM |
| CC(C)C[C@@H](NC(=O)[C@@H](Cc1ccccc1)NC(=O)c1cnccn1)B1Oc2ccc(C[C@H](NC(=O)[C@H](Cc3ccc4c(c3)OB([C@@H](CC(C)C)NC(=O)[C@@H](Cc3ccccc3)NC(=O)c3cnccn3)O4)NC(=O)[C@@H](N)CC3CCC4OB([C@@H](CC(C)C)NC(=O)[C@@H](CC5CCCCC5)NC(=O)C5CNCCN5)OC4C3)C(=O)NCCCC[C@@H]3NC(=O)[C@@H](Cc4ccccc4)NC(=O)[C@H](CC(=O)O)NC(=O)CNC(=O)[C@H](CCCNC(=N)N)NC3=O)cc2O1 (some centres undefined) | 0.00272 µM and < 0.0025 µM | 0.00722 µM and < 0.0025 µM |
| C/C=C/C1=CN2C(=O)c3cc(OC4OC(C)C(NC)C(C)(O)C4O)c(C)cc3N=C[C@@H]2C1 (some centres undefined) | 0.0107 µM | 0.0282 µM |
| O=C1CCc2c(Oc3ccc4c(c3)[C@H]3[C@@H](O4)[C@@H]3c3nc4ccc(C(F)(F)F)cc4[nH]3)ccnc2N1 | 1.74 µM | 7.13 µM |
| C#C[C@@]1(O)[C@@H](CO)O[C@@H](n2cc(Br)c3c(N)ncnc32)[C@@H]1O | 0.115 µM | 0.352 µM |
| CCn1nc(-c2ccc(C(=O)OC)cc2)nc2c(=O)n(C)c(=O)nc1-2 | 0.189 µM | 0.477 µM |
| NC(=O)c1c(Br)n(C2OC(CO)C(O)C2O)c2ncnc(N)c12 (centres undefined) | 0.437 µM | 2.36 µM |
| ClC(Cl)c1nc(-c2ccccc2)n2nc(-c3ccccc3)cc2n1 | 0.287 µM | 1.25 µM |
| CC(C)N(Cc1c(F)cccc1F)c1ccc(CO)c(Cl)c1 | 0.0187 µM | 0.0531 µM |
| COc1ccc2c(c1)O/C(=C\c1ncc([N+](=O)[O-])n1C)C2=O | 1.33 µM | 3.72 µM |
| O=C1CCC/C=C\C[C@H]2C=CC(=O)/C2=C/C[C@H](CCc2cccc(C(F)(F)F)c2)O1 | 1.69 µM | 3.71 µM |
| O=S(=O)(Nc1ccc(Cl)c(F)c1)c1ccc(-c2cnc(C3CC3)o2)cc1 | 0.187 µM | 0.998 µM |
| CN1CCN(Cc2ccc(NC(=O)c3cncc(C#Cc4cnc5ccc(O[C@H]6CCOC6)nn45)c3)cc2C(F)(F)F)CC1 | 0.75 µM | 1.69 µM |
| COc1cc2c(cc1O)CC[C@@H]1[C@@H]2CC[C@]2(C)[C@@H](OCCCN(C)C)CC[C@@H]12 | 0.12 µM | 0.3 µM |
| COC(=O)c1c(C)c2n(c1C)C(=O)C(c1ccccc1)=C2 | 4.88 µM | > 72.8 µM |
| N#C/C(=C1C=C/C(=N/O)C(Cl)=C/1)c1ccc(Cl)cc1 | 3 µM | 9.7 µM |
| Cc1ccc2cc3c(cc(C)c4ccccc43)c3c2c1CC3 | > 100 µM | > 100 µM |
| Nc1ccccc1NC(=O)c1ccc(CNC(=O)OCc2cccnc2)cc1 | 0.412 µM | 2.05 µM |
| COc1cc(-c2nn(-c3ccc(NC(=O)NCCNS(=O)(=O)c4ccc(F)cc4)cc3)cc2-c2ccncc2)ccc1Cl | 0.323 µM | 1.28 µM |
| Cc1ccc(-c2nc3nc(-c4ccc(Br)cc4)nc(N4CCCNCC4)c3o2)cc1 | 3.98 µM | 15.9 µM |
| COc1ccc(C2=C(c3cn(C)c4ccccc34)C(=O)OC2)cc1OC | 1.65 µM | > 100 µM |
| O=C(NC1CCCCC1)OCc1c(COC(=O)NC2CCCCC2)c(-c2ccc(Cl)c(Cl)c2)n2c1CCC2 | 1.8 µM | 10.9 µM |
